US9366677B2, “Methods for analyzing biological macromolecular complexes and use thereof” (Max-Planck-Gesellshaft zur Foerderung der Wissenschaften …, priority 2011, dated 2016)
Entries after “also recorded” stand apart in the source; their conditions may differ.

Biological target: GroEL/GroES (Escherichia coli, UniProt P0A6F5)
Experiment: Thermofluor (DSF) unfolding of equimolar GroEL/GroES with adenine nucleotides
Format: binding
Details: in the presence of the nucleotide
Text: In a next proof of principle for the validity of the method according to the present invention, it has been determined whether thermal unfolding was suitable to find small molecules, which stabilize molecular machines similarly as has been documented for single-domain proteins (Ericsson et al. 2006, Analytical Biochemistry, 357:289-298). For this the GroEL/GroES (homo-tetradecameric 800 kDa and homo-heptameric 70 kDa, respectively) chaperonin system has been analysed. Two important properties of the chaperonin system have been well documented in the literature (Sigler et al., 1998, Annual Reviews in Biochemistry, 67:581-608; Tang et al., 2006, Cell, 125:908-914). First, GroEL forms a double heptameric ring structure, which exposes hydrophobic residues on one face, where non-native substrate protein can bind. Second, the binding of adenine-nucleotides to GroEL induces a conformational change, which causes the previously exposed hydrophobic residues to be buried and is essential for GroES binding to one face of the GroEL double ring. Therefore, measurements according to the present invention of an equimolar GroEL/GroES should yield a high initial fluorescence owing to the solvent-exposed hydrophobic residues, which gradually decreases upon temperature ramping. […]

Sequence of GroEL/GroES (P0A6F9 whole entry): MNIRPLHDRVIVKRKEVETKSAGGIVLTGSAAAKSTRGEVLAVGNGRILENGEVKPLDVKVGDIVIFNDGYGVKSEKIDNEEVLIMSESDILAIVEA
Sequence of GroEL/GroES (P0A6F5 2-548): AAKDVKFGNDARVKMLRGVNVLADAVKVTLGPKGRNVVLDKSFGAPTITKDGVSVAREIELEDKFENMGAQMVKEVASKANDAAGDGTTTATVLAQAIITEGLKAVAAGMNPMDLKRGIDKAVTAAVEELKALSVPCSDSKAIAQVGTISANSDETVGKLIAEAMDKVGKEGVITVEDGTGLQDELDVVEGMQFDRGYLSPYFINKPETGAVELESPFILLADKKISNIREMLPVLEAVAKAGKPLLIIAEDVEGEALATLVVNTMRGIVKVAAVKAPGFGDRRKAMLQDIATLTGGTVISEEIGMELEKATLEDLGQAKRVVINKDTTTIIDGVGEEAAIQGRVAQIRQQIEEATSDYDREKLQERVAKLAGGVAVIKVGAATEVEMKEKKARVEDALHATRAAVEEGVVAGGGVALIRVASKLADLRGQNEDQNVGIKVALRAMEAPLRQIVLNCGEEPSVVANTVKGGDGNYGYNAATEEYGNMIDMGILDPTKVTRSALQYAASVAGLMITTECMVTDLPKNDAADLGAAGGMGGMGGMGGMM

SMILES | unfolding transition of GroEL/GroES (complex formation)
Nc1ncnc2c1ncn2[C@@H]1O[C@H](COP(=O)(O)OP(=O)(O)OP(=O)(O)O)[C@@H](O)[C@H]1O [ATP] | complexes are formed; also recorded: single—apparent two-state—unfolding transition
Nc1ncnc2c1ncn2[C@H]1C[C@H](O)[C@@H](COP(=O)(O)OP(=O)(O)OP(=O)(O)O)O1 [dATP] | complexes are formed; also recorded: single—apparent two-state—unfolding transition
